Test results reported in patent EP4700096A1, “INK COMPOSITION FOR INK-JET PRINTING” (Sakata INX Corporation, priority 2023, dated 2024).

assay: SP value (solubility parameter) calculated by Formula 1; format: physicochemical; conditions: 25°C (298 K), calculated by Formula 1 from latent heat of vaporization, molecular weight, density
From the text: The SP value refers to the solubility parameter, and the SP value of the water-soluble organic solvent (B) can be determined by formula 1 below. SP value(unit:((cal/cm^3))^(1/2)) = ({(ΔH−RT)/(M/D)})^(1/2) [formula]

SMILES	SP value (25°C)
CC(O)CO (stereo not drawn) [1,2-propanediol]	12.6 (cal/cm^3)^1/2
CC(O)COC(C)COC(C)CO (stereo not drawn) [Tripropylene glycol]	9.0 (cal/cm^3)^1/2
OCC(O)CO [glycerin]	14.9 (cal/cm^3)^1/2
